This note sets out measurements from publication PMC5224880, “Discovery and Molecular Basis of a Diverse Set of Polycomb Repressive Complex 2 Inhibitors Recognition by EED” (PLoS ONE, 2017).

The term pIC50 denotes −log10 of the IC50, conventionally taken in molar units. A lower pIC50 goes with a high IC50.

What all share (format): biochemical
One assay addresses DNMT1 (Homo sapiens, UniProt P26358). The experiment in a line: HMT panel selectivity: DNMT1. The procedure:
(§1) Note: for EZH2, EZH2/EED/SUZ12/RBAP48/AEBP2 was used in the assay; for EZH1, EZH1/EED/SUZ12/RBAP48/AEBP2 was used in the assay; for MLL, MLL/WDR5/RBBP5/ASH2L/ was use in the assay. a, H3K27me0 peptide was used as substrate for both EZH2 and EZH1 activity; b, H3K27me1 peptide was used as substrate for both EZH2 and EZH1 activity. All HMT reactions were performed as described previously. ref: Proc Natl Acad Sci U S A. 2012 Dec 26;109(52):21360-5.

The next assay addresses NSD1 (Homo sapiens, UniProt Q96L73). The experiment in a line: HMT panel selectivity: NSD1. The procedure: as §1
In another assay the target is T1, NSD3 (Homo sapiens, UniProt Q9BZ95).
T1 sequence (Q9BZ95 1-1437): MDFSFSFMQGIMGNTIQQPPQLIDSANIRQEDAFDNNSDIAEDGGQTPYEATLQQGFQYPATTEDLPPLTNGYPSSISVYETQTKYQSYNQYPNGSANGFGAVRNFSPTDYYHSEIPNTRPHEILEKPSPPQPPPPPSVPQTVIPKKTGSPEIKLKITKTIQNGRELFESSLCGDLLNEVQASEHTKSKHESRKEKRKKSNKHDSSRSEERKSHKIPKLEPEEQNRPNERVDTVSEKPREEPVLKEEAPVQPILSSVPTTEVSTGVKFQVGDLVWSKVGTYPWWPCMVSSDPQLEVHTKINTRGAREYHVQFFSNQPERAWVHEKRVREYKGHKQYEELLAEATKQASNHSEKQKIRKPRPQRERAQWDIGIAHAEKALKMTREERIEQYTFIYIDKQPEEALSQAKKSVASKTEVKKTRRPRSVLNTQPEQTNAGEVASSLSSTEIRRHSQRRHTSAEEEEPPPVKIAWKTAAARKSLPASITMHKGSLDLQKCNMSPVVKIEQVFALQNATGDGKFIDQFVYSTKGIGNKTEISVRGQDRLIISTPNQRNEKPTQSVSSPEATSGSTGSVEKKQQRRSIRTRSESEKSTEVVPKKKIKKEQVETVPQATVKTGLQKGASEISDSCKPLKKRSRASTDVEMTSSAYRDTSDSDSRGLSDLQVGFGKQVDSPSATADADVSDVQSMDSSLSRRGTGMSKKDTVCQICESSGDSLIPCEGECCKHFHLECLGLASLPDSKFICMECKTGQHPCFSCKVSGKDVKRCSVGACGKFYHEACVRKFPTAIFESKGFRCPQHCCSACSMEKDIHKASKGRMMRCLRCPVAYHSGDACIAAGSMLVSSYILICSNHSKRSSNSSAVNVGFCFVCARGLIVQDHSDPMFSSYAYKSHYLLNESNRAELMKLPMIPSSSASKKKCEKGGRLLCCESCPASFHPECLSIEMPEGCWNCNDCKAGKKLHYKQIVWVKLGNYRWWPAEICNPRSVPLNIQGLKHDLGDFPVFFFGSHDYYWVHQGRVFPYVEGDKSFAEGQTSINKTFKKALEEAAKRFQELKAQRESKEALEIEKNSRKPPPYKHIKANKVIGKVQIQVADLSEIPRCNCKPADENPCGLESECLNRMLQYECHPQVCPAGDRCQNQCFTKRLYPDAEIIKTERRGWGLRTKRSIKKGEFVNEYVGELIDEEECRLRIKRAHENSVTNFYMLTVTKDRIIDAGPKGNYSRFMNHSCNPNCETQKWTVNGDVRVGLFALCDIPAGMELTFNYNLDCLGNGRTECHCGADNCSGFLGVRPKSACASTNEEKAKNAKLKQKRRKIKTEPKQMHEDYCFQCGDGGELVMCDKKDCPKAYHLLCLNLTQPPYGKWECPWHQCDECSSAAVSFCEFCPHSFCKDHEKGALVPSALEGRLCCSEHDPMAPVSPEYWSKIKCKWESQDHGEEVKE
The assay can be described thus: HMT panel selectivity: NSD3. The procedure:
as §1

For a further assay, the target named is PRMT5/MEP50 (Homo sapiens, UniProt O14744). The assay can be described thus: HMT panel selectivity: PRMT5/MEP50. As to the method:
as §1

The target of assay [1] is EZH2 (EZH2/EED/SUZ12/RBAP48/AEBP2) (Homo sapiens, UniProt O75530+Q15910). The assay can be described thus: HMT panel selectivity: EZH2. The source says: This assay employs liquid chromatography mass spectrometry technology using peptide or nucleosome as substrate and then detects the formation of the co-product SAH [11, 25].
Sequence of EZH2 (EZH2/EED/SUZ12/RBAP48/AEBP2) (Q15910 whole entry): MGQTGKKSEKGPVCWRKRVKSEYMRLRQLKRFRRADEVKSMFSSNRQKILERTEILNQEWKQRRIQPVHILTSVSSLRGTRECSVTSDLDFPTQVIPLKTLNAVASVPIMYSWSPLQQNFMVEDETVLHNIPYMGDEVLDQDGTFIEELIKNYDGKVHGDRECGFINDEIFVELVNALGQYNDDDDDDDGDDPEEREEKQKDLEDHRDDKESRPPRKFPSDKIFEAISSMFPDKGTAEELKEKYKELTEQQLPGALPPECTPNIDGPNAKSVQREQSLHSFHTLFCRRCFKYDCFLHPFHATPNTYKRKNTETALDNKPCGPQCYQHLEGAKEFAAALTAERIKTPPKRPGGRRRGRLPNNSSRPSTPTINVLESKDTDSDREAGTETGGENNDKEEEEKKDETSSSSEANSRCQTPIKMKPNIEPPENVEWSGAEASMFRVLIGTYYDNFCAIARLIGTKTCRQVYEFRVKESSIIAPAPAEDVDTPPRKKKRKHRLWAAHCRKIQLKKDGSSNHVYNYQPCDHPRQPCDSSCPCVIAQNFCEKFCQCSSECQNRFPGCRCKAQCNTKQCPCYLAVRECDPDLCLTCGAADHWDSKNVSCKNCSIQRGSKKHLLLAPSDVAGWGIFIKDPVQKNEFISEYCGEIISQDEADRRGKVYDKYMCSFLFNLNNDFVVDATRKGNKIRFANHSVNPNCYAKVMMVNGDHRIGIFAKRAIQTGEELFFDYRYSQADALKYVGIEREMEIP
Sequence of EZH2 (EZH2/EED/SUZ12/RBAP48/AEBP2) (O75530 whole entry): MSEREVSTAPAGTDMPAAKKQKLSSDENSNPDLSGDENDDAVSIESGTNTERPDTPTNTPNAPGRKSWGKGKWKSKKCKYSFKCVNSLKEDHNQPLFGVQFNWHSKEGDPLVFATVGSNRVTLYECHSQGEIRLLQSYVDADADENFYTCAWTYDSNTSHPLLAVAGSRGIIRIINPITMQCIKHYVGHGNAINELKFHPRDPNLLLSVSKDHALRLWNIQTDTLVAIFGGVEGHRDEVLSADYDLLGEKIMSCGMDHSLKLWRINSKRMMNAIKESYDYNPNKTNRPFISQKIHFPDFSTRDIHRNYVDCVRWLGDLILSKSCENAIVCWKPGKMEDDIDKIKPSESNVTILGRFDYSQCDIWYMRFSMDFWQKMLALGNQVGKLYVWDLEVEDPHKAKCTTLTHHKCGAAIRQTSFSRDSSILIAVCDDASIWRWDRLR
Sequence of EZH2 (EZH2/EED/SUZ12/RBAP48/AEBP2) (Q15022 whole entry partner): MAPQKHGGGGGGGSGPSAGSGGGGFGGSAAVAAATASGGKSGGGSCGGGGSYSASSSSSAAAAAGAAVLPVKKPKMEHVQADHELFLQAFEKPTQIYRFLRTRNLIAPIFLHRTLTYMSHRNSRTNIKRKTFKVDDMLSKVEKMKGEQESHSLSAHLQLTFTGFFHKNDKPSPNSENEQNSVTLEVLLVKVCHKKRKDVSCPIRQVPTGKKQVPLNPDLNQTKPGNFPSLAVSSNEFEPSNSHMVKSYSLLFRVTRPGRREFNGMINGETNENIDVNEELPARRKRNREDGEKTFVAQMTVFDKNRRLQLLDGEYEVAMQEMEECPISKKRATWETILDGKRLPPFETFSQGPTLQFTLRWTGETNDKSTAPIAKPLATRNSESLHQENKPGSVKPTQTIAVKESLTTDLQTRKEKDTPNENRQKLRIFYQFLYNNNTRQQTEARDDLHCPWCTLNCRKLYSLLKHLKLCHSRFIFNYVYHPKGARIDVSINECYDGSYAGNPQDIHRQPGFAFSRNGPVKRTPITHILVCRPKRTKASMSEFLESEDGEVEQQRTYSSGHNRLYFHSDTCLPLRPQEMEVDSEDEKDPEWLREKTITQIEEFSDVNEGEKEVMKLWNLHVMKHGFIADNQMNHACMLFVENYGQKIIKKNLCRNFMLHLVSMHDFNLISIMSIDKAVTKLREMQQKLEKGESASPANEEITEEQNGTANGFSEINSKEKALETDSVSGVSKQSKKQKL
Sequence of EZH2 (EZH2/EED/SUZ12/RBAP48/AEBP2) (Q09028 whole entry partner): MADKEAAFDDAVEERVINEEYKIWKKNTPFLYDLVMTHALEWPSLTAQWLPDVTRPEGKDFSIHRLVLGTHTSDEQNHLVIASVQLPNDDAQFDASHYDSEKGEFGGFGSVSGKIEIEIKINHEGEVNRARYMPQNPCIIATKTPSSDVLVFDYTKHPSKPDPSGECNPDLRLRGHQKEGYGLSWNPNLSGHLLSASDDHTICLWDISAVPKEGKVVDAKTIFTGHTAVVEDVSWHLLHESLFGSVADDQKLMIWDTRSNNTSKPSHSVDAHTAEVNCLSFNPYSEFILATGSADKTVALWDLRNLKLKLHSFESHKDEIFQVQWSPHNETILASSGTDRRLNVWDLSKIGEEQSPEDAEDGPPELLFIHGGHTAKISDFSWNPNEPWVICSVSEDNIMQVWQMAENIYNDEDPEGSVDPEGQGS
Sequence of EZH2 (EZH2/EED/SUZ12/RBAP48/AEBP2) (Q6ZN18 whole entry partner): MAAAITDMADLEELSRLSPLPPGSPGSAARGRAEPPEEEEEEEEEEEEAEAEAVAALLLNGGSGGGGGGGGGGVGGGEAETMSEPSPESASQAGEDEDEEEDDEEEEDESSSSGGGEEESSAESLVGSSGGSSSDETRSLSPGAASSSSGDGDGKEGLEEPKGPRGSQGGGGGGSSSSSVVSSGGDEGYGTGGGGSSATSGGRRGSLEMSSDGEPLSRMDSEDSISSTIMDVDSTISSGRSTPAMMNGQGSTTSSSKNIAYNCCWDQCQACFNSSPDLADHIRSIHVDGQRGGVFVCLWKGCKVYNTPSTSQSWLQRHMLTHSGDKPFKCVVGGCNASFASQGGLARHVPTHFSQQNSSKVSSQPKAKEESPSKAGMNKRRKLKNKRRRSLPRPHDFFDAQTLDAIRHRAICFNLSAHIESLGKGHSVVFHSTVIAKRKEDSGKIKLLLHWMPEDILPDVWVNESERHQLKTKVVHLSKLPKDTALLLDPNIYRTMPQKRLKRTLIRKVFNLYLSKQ
Note: for EZH2, EZH2/EED/SUZ12/RBAP48/AEBP2 was used in the assay; for EZH1, EZH1/EED/SUZ12/RBAP48/AEBP2 was used in the assay; for MLL, MLL/WDR5/RBBP5/ASH2L/ was use in the assay. a, H3K27me0 peptide was used as substrate for both EZH2 and EZH1 activity; b, H3K27me1 peptide was used as substrate for both EZH2 and EZH1 activity.

pIC50: −log10 of the molar value. Some results are limits rather than exact numbers.

Sequence of PRMT5/MEP50 (O14744 whole entry, species assumed): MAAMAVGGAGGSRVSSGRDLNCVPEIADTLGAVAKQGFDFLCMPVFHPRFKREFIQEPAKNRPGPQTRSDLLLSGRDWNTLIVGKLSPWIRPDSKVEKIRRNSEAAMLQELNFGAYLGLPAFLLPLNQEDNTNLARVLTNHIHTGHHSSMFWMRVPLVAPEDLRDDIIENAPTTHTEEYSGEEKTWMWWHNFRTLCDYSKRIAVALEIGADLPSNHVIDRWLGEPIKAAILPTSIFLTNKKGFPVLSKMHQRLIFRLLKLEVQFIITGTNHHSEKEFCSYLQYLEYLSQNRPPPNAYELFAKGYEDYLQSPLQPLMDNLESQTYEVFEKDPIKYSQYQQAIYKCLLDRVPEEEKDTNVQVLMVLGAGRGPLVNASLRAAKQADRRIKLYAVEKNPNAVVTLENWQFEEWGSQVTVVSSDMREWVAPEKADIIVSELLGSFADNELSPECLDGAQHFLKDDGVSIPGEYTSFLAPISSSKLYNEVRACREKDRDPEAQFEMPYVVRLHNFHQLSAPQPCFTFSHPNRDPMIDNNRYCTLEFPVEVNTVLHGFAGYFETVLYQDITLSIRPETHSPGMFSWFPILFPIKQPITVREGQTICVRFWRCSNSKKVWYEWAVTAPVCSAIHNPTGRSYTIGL
Sequence of PRMT5/MEP50 (Q9BQA1 whole entry partner, species assumed): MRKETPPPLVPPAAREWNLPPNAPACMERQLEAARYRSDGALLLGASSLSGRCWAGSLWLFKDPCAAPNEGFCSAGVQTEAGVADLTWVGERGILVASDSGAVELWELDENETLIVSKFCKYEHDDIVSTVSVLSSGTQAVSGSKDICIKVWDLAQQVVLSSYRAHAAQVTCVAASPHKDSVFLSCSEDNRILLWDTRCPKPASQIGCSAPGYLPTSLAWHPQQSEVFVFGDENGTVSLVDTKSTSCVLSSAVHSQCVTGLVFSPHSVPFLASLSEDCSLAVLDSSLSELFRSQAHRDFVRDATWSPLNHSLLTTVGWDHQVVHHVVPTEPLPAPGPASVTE

`N#Cc1c2c(c3nncn3c1NCc1ccco1)CN(Cc1ccccc1)CC2` [EED162]: the negative-log IC50 (pIC50) is below 4.00 against DNMT1; below 4.00 on NSD1; below 4.00 on NSD3; below 4.00 at PRMT5/MEP50; 5.66 in assay [1].

With `COc1cccc(CC2CC3Cc4c(cccc4OC)CC3N(C)C2)c1` (centres unmarked) [EED210], the pIC50 at DNMT1, at NSD1, against NSD3 and against PRMT5/MEP50 was below 4.00 each time.

Regarding `COc1cc(-c2cc3n(c(=N)c2C#N)CCc2cc4c(cc2-3)OCO4)ccc1OC(C)C` [EED396], the pIC50 against DNMT1 was below 4.00; at NSD1, below 4.00; against NSD3, below 4.00; at PRMT5/MEP50, below 4.00; in assay [1], 4.06.

On to `Cc1cc(C)n(-c2cc(N3CCc4ccccc4C3)ccc2[N+](=O)[O-])n1` [EED666], for which the negative logarithm of the IC50 (pIC50) is below 4.00 on DNMT1; below 4.00 against NSD1; below 4.00 on NSD3; below 4.00 on PRMT5/MEP50; 4.00 in assay [1].

Turning to `COc1ccccc1CN1CC(c2cn(C)c3ccccc23)C(N(C)C)C1` (centres unmarked) [EED709], the negative logarithm of the IC50 (pIC50) on DNMT1, on NSD1, against NSD3 and on PRMT5/MEP50 was below 4.00 each time.
